Source: ChEMBL document CHEMBL3885861, “Open TG-GATES”

Species: Rattus norvegicus
Test: Open TG-GATES - Regimen: Single
Type: toxicity, organism-based, Sprague-Dawley
Design: regimen Single, gender Male, age 6 weeks
Settings: in vivo, po, 300 mg/kg, route gavage, dose level Middle; for APTT / Bas / Eos / Fbg / Hb / Ht / Lym / MCH / MCHC / MCV / Mono / Neu / PT / Plat / RBC / Ret / WBC: tissue Blood; for KIDNEY_L / KIDNEY_R / KIDNEY_TOTAL: tissue Kidney; for LIVER: tissue Liver; for A/G / ALP / ALT / AST / BUN / CRE / Ca / Cl / DBIL / GLC / IP / K / LDH / Na / PL / RALB / TBIL / TC / TG / TP / gamma-GTP: tissue Plasma

CCCCNC(=O)NS(=O)(=O)c1ccc(C)cc1 [TOLBUTAMIDE]
TERMINAL_BW (3 h): 202.7 g
APTT (3 h): 16.1 s
Bas (3 h): 0%
Eos (3 h): 1%
Fbg (3 h): 308.4 mg/dL
Hb (3 h): 13.7 g/dL
Ht (3 h): 42.4%
Lym (3 h): 75.2%
MCH (3 h): 20.5 pg
MCHC (3 h): 32.3%
MCV (3 h): 63.5 fL
Mono (3 h): 3%
Neu (3 h): 20.4%
PT (3 h): 12.9 s
Plat (3 h): 121.4 x10_4/uL
RBC (3 h): 667.6 x10_4/ul
Ret (3 h): 9%
WBC (3 h): 75.7 x10_2/uL
KIDNEY_L (3 h): 0.9 g
KIDNEY_R (3 h): 0.9 g
KIDNEY_TOTAL (3 h): 1.8 g
LIVER (3 h): 8.8 g
A/G (3 h): 0.9
ALP (3 h): 1501.4 IU/L
ALT (3 h): 42 IU/L
AST (3 h): 75 IU/L
BUN (3 h): 11.2 mg/dL
CRE (3 h): 0.2 mg/dL
Ca (3 h): 10.8 mg/dL
Cl (3 h): 107 meq/L
DBIL (3 h): 0.008 mg/dL
GLC (3 h): 148 mg/dL
IP (3 h): 8.4 mg/dL
K (3 h): 4.1 meq/L
LDH (3 h): 59.6 IU/L
Na (3 h): 141 meq/L
PL (3 h): 135.6 mg/dL
RALB (3 h): 2.6 g/dL
TBIL (3 h): 0.052 mg/dL
TC (3 h): 76.6 mg/dL
TG (3 h): 71.8 mg/dL
TP (3 h): 5.5 g/dL
gamma-GTP (3 h): 1 IU/L
TERMINAL_BW (6 h): 203.4 g
APTT (6 h): 17.5 s
Bas (6 h): 0.2%
Eos (6 h): 1%
Fbg (6 h): 295 mg/dL
Hb (6 h): 13.9 g/dL
Ht (6 h): 42.5%
Lym (6 h): 75.8%
MCH (6 h): 21.4 pg
MCHC (6 h): 32.7%
MCV (6 h): 65.5 fL
Mono (6 h): 2.6%
Neu (6 h): 20.4%
PT (6 h): 13.1 s
Plat (6 h): 119.3 x10_4/uL
RBC (6 h): 650 x10_4/ul
Ret (6 h): 9%
WBC (6 h): 68.2 x10_2/uL
KIDNEY_L (6 h): 0.9 g
KIDNEY_R (6 h): 0.9 g
KIDNEY_TOTAL (6 h): 1.8 g
LIVER (6 h): 8.5 g
A/G (6 h): 0.9
ALP (6 h): 1415.4 IU/L
ALT (6 h): 47.2 IU/L
AST (6 h): 81.8 IU/L
BUN (6 h): 11.6 mg/dL
CRE (6 h): 0.2 mg/dL
Ca (6 h): 11 mg/dL
Cl (6 h): 106.6 meq/L
DBIL (6 h): 0.006 mg/dL
GLC (6 h): 134.8 mg/dL
IP (6 h): 9.5 mg/dL
K (6 h): 3.8 meq/L
LDH (6 h): 54 IU/L
Na (6 h): 141.4 meq/L
PL (6 h): 126.6 mg/dL
RALB (6 h): 2.6 g/dL
TBIL (6 h): 0.058 mg/dL
TC (6 h): 66.6 mg/dL
TG (6 h): 59.2 mg/dL
TP (6 h): 5.4 g/dL
gamma-GTP (6 h): 1.2 IU/L
TERMINAL_BW (9 h): 200 g
APTT (9 h): 17.4 s
Bas (9 h): 0%
Eos (9 h): 1.2%
Fbg (9 h): 324 mg/dL
Hb (9 h): 13.7 g/dL
Ht (9 h): 41.4%
Lym (9 h): 69%
MCH (9 h): 20.7 pg
MCHC (9 h): 32.9%
MCV (9 h): 62.9 fL
Mono (9 h): 2.4%
Neu (9 h): 27%
PT (9 h): 13.4 s
Plat (9 h): 129.6 x10_4/uL
RBC (9 h): 659 x10_4/ul
Ret (9 h): 8.8%
WBC (9 h): 81.6 x10_2/uL
KIDNEY_L (9 h): 0.9 g
KIDNEY_R (9 h): 0.9 g
KIDNEY_TOTAL (9 h): 1.8 g
LIVER (9 h): 7.9 g
A/G (9 h): 0.9
ALP (9 h): 1449.6 IU/L
ALT (9 h): 40.4 IU/L
AST (9 h): 71.8 IU/L
BUN (9 h): 9.6 mg/dL
CRE (9 h): 0.2 mg/dL
Ca (9 h): 10.8 mg/dL
Cl (9 h): 106.4 meq/L
DBIL (9 h): 0.004 mg/dL
GLC (9 h): 136.6 mg/dL
IP (9 h): 9.9 mg/dL
K (9 h): 4 meq/L
LDH (9 h): 62 IU/L
Na (9 h): 142 meq/L
PL (9 h): 127.2 mg/dL
RALB (9 h): 2.6 g/dL
TBIL (9 h): 0.064 mg/dL
TC (9 h): 69.4 mg/dL
TG (9 h): 41.6 mg/dL
TP (9 h): 5.4 g/dL
gamma-GTP (9 h): 1 IU/L
TERMINAL_BW (24 h): 218.5 g
APTT (24 h): 16.4 s
Bas (24 h): 0.2%
Eos (24 h): 1%
Fbg (24 h): 314.2 mg/dL
Hb (24 h): 13.3 g/dL
Ht (24 h): 40.4%
Lym (24 h): 76.6%
MCH (24 h): 20.9 pg
MCHC (24 h): 33%
MCV (24 h): 63.5 fL
Mono (24 h): 3.6%
Neu (24 h): 18%
PT (24 h): 12.9 s
Plat (24 h): 125 x10_4/uL
RBC (24 h): 636.8 x10_4/ul
Ret (24 h): 8%
WBC (24 h): 102.5 x10_2/uL
KIDNEY_L (24 h): 0.9 g
KIDNEY_R (24 h): 0.9 g
KIDNEY_TOTAL (24 h): 1.9 g
LIVER (24 h): 10.3 g
A/G (24 h): 0.9
ALP (24 h): 1549.2 IU/L
ALT (24 h): 45 IU/L
AST (24 h): 72.2 IU/L
BUN (24 h): 14.2 mg/dL
CRE (24 h): 0.2 mg/dL
Ca (24 h): 11.1 mg/dL
Cl (24 h): 105 meq/L
DBIL (24 h): 0.008 mg/dL
GLC (24 h): 180.2 mg/dL
IP (24 h): 8.5 mg/dL
K (24 h): 4 meq/L
LDH (24 h): 83 IU/L
Na (24 h): 141.2 meq/L
PL (24 h): 150.2 mg/dL
RALB (24 h): 2.5 g/dL
TBIL (24 h): 0.062 mg/dL
TC (24 h): 81.8 mg/dL
TG (24 h): 85 mg/dL
TP (24 h): 5.4 g/dL
gamma-GTP (24 h): 1 IU/L
